Test results: patent publication US20010049393A1, “Methods for defining MYC target genes and uses thereof” (Whitehead Institute for Biomedical Research, priority 1999, published 2001)

Experiments:
MYC-ER [1] = assay: Cell cycle (S phase) entry after OHT treatment of MYC-ER transduced human fibroblasts; assay type: cell-based
Description: (§1) Amphotropic viral stocks were generated by co-transfection of pBabe-puro plasmid containing MYC-ER™ or Δ-MYC-ER™ (Littlewood, T. et al., 1995. Nucl. Acids Res. 23:1686-1690) together with Psi^−helper construct (Muller, A. et al., 1991. Mol. Cell. Biol. 11:1785-1792) in 293T cells. Subconfluent WI38 cells (ATCC cat #CCL75) grown in DMEM with 10% FCS were infected with 5 mL of viral supernatant on two consecutive days. The next day, cells were plated at ˜10^4cells/cm^2 in phenol-red free DME medium with 10% FCS, and selected in the presence of puromycin for pBABE vectors. Cells were grown to confluence, for seven to eight days, without media changes. Density arrested cells were induced with 200 nM OHT (4-hydroxy-tamoxifen) or serum starved (0.1% FCS) for 48 hours and then induced. Where specified, cells were exposed to cycloheximide (10 micrograms/mL) for 30 minutes prior to addition of OHT.
Treatment of the transduced cells with OHT, caused 20% of the cells to enter the cell cycle by 17 hours. In contrast, only 1-6% of, OHT-treated, non-MYC-ER expressing controls ever enter S phase. […]

MYC-ER [2] = assay: Northern blot of p21 transcript after OHT stimulation of MYC-ER; assay type: cell-based, human; settings: within two hours after OHT stimulation, MYC-ER fibroblasts
Description: as §1
Northern blots were performed according to standard procedures (Ausubel, F. et al., 1990. Current Protocols in Molecular Biology. Wiley Interscience, New York). For cyclin D2 and p21, complete cDNA was used as probes. For FKBP52, a PCR amplicon of bps 1215-1767 (accession number M88279) was used; for FABP5 (PA-FA-BP), bps 60-481 (M94856); for ODC1, bps 1198-1984 (X55362); for PPIF (hCyP3), bps 404-803 (M80254); and for EIF5A, bps 46-512 (U17969). […]

Substance: 4-hydroxytamoxifen [OHT]
- cells entering the cell cycle (MYC-ER [1]; MYC-ER transduced fibroblasts, by 17 hours after OHT): 20%
- cells entering S phase (MYC-ER [1]; OHT-treated, non-MYC-ER expressing controls): 1-6%
- levels of p21 (MYC-ER [2]): decreased
